Measured values taken from patent publication US20260125382A1, “COMPOUNDS FOR INHIBITING OR DEGRADING CDK2 AND/OR CDK9 AND MEDICINAL USE THEREOF” (KOREA RESEARCH INSTITUTE OF CHEMICAL TECHNOLOGY, priority 2022, published 2026).

Legend:
[1] = biological target: T1, CDK2 (Homo sapiens, UniProt P24941); assay: CDK protein degradation activity (Western blotting), CDK2; assay type: cell-based; details: MDA-MB-231 cells, 16 hours, Western blot
T1 construct: endogenous in cells; host or cells: MDA-MB-231
How it was run: (§1)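 Seed MDA-MB-231 cells; next day add compound to 100 nM, 1 μM or 10 μM final, or DMSO. After 16 h, harvest and lyse in Triton X-100 buffer, run SDS-PAGE, probe for CDK2, CDK9 and tubulin.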

[2] = biological target: T2, CDK9 (Homo sapiens, UniProt P50750); assay: CDK protein degradation activity (Western blotting), CDK9; assay type: cell-based; details: MDA-MB-231 cells, 16 hours, Western blot
T2 construct: endogenous in cells; host or cells: MDA-MB-231
T2 sequence (P50750 whole entry): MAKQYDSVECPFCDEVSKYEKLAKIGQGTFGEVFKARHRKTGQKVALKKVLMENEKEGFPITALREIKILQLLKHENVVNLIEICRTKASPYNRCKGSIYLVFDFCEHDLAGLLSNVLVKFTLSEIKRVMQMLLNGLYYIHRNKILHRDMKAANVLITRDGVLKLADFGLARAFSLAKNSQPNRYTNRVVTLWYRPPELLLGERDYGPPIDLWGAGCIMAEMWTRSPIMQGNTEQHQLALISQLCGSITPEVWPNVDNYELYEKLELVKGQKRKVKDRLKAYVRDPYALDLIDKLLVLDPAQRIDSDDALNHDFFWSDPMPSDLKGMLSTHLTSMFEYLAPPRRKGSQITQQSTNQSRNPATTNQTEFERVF
How it was run: as §1

Enzyme degradation CDK2 (% remaining) @ 0.1 μM [1] | Enzyme degradation CDK2 (% remaining) @ 1 μM [1] | Enzyme degradation CDK2 (% remaining) @ 10 μM [1] | Enzyme degradation CDK9 (% remaining) @ 0.1 μM [2] | Enzyme degradation CDK9 (% remaining) @ 1 μM [2] | Enzyme degradation CDK9 (% remaining) @ 10 μM [2] | Compound
40% | 20% | 10% | 0/0/0% | 0/0/0% | 0/0/0% | Cc1cccc(C(=O)N[C@H]2C[C@@H](n3cnc4c(NCCC5CCN(CC6CCN(C(=O)COc7ccc8c(c7)C(=O)N([C@H]7CCC(=O)NC7=O)C8=O)CC6)CC5)ncnc43)C2)n1 [Compound 124, N-((1s,3s)-3-(6-((2-(1-((1-(2-((2-(2,6-dioxopiperidin-3-yl)-1,3-dioxoisoindolin-5-yl)oxy)acetyl)piperidin-4-yl)methyl)piperidin-4-yl)ethyl)amino)-9H-purin-9-yl)cyclobutyl)-6-methylpicolinamide]
40% | 50% | 50% | 10/10/10% | 10/10/10% | 10/10/10% | O=C1CC[C@@H](c2ccc(OCC(=O)N3CCC(CCN4CCN(c5ccc(Nc6ncnc7c6ncn7[C@H]6C[C@@H](NC(=O)c7cccc(C(F)(F)F)n7)C6)cc5)CC4)CC3)cc2)C(=O)N1 [Compound 438, N-((1s,3s)-3-(6-((4-(4-(2-(1-(2-(4-(2,6-dioxopiperidin-3-yl)phenoxy)acetyl)piperidin-4-yl)ethyl)piperazin-1-yl)phenyl)amino)-9H-purin-9-yl)cyclobutyl)-6-(trifluoromethyl)picolinamide]
40% | 30% | 30% | 0/0/0% | 0/0/0% | 0/0/0% | O=C1CC[C@H](N2C(=O)c3cc(F)c(N4CCC(C(=O)N5CCC6(CC5)CC(N5CCN(c7ccc(Nc8ncnc9c8ncn9C8CC(NC(=O)c9c(Cl)cccc9Cl)C8)cc7)CC5)C6)CC4)cc3C2=O)C(=O)N1 (stereo partly drawn) [Compound 464, 2,6-dichloro-N-((1s,3s)-3-(6-((4-(4-(7-(1-(2-(2,6-dioxopiperidin-3-yl)-6-fluoro-1,3-dioxoisoindolin-5-yl)piperidin-4-carbonyl)-7-azaspiro[3.5]nonan-2-yl)piperazin-1-yl)phenyl)amino)-9H-purin-9-yl)cyclobutyl)benzamide]
100% | 60% | 80% | 90% | 20% | 30% | Cc1cccc(C(=O)NC2CC(n3cnc4c(NCc5ccc(OCC6CCN(c7ccc8c(c7)C(=O)N([C@H]7CCC(=O)NC7=O)C8=O)CC6)cc5)ncnc43)C2)n1 (stereo partly drawn) [Compound 110, N-((1s,3s)-3-(6-((4-((1-(2-(2,6-dioxopiperidin-3-yl)-1,3-dioxoisoindolin-5-yl)piperidin-4-yl)methoxy)benzyl)amino)-9H-purin-9-yl)cyclobutyl)-6-methylpicolinamide]
80% | 80% | 60% | 40% | 0% | 0% | O=C(CNc1ccc2c(c1)C(=O)N(C1CCC(=O)NC1=O)C2=O)NC[C@H]1CC[C@H](CN2CCN(c3ccc(Nc4ncnc5c4ncn5[C@H]4C[C@@H](NC(=O)Cc5ccccc5)C4)cc3)CC2)CC1 (stereo partly drawn) [Compound 220, 2-((2-(2,6-dioxopiperidin-3-yl)-1,3-dioxoisoindolin-5-yl)amino)-N-(((1r,4r)-4-((4-(4-((9-((1s,3s)-3-(2-phenylacetamido)cyclobutyl)-9H-purin-6-yl)amino)phenyl)piperazin-1-yl)methyl)cyclohexyl)methyl)acetamide]
60% | 60% | 70% | 0/0/0% | 0/0/0% | 0/0/0% | Cc1cccc(C(=O)N[C@H]2C[C@@H](n3cnc4c(NC5CCN(CCCN6CCN(c7ccc8c(c7)C(=O)N([C@H]7CCC(=O)NC7=O)C8=O)CC6)CC5)ncnc43)C2)n1 (racemic) [Compound 41, N-((1s,3s)-3-(6-((1-(3-(4-(2-(2,6-dioxopiperidin-3-yl)-1,3-dioxoisoindolin-5-yl)piperazin-1-yl)propyl)piperidin-4-yl)amino)-9H-purin-9-yl)cyclobutyl)-6-methylpicolinamide]
10/10/10% | 10/10/10% | 10/10/10% | 0/0/0% | 0/0/0% | 0/0/0% | N#Cc1cccc(C(=O)N[C@H]2C[C@@H](n3cnc4c(Nc5ccc(N6CCN(CC7CCN(C(=O)CNc8cccc9c8C(=O)N(C8CCC(=O)NC8=O)C9=O)CC7)CC6)cc5)ncnc43)C2)n1 (stereo partly drawn) [Compound 420, 6-cyano-N-((1s,3s)-3-(6-((4-(4-((1-((2-(2,6-dioxopiperidin-3-yl)-1,3-dioxoisoindolin-4-yl)glycyl)piperidin-4-yl)methyl)piperazin-1-yl)phenyl)amino)-9H-purin-9-yl)cyclobutyl)picolinamide]
100/100/100% | 100/100/100% | 100/100/100% | 100% | 60% | 0% | O=C(COc1ccc2c(c1)C(=O)N(C1CCC(=O)NC1=O)C2=O)NC[C@H]1CC[C@H](CN2CCN(c3ccc(Nc4ncnc5c4ncn5[C@H]4C[C@@H](NC(=O)Cc5ccccc5)C4)cc3)CC2)CC1 (stereo partly drawn) [Compound 221, 2-((2-(2,6-dioxopiperidin-3-yl)-1,3-dioxoisoindolin-5-yl)oxy)-N-(((1r,4r)-4-((4-(4-((9-((1s,3s)-3-(2-phenylacetamido)cyclobutyl)-9H-purin-6-yl)amino)phenyl)piperazin-1-yl)methyl)cyclohexyl)methyl)acetamide]
70% | 50% | 50% | 70% | 0% | 0% | Cc1cccc(C(=O)N[C@H]2C[C@@H](n3cnc4c(NCc5ccc(OCC6CCN(C(=O)COc7ccc8c(c7)C(=O)N([C@H]7CCC(=O)NC7=O)C8=O)CC6)cc5)ncnc43)C2)n1 [Compound 106, N-((1s,3s)-3-(6-((4-((1-(2-((2-(2,6-dioxopiperidin-3-yl)-1,3-dioxoisoindolin-5-yl)oxy)acetyl)piperidin-4-yl)methoxy)benzyl)amino)-9H-purin-9-yl)cyclobutyl)-6-methylpicolinamide]
0/0/0% | 0/0/0% | 0/0/0% | 0/0/0% | 0/0/0% | 0/0/0% | O=C1CC[C@H](n2nnc3ccc(N4CCC(CN5CCN(c6ccc(Nc7ncnc8c7ncn8C7CC(NC(=O)c8c(Cl)cccc8Cl)C7)cc6)CC5)CC4)cc3c2=O)C(=O)N1 (stereo partly drawn) [Compound 371, 2,6-dichloro-N-((1s,3s)-3-(6-((4-(4-((1-(3-(2,6-dioxopiperidin-3-yl)-4-oxo-3,4-dihydrobenzo[d][1,2,3]triazin-6-yl)piperidin-4-yl)methyl)piperazin-1-yl)phenyl)amino)-9H-purin-9-yl)cyclobutyl)benzamide]
50/50/50% | 50/50/50% | 50/50/50% | 50% | 20% | 0% | O=C1CC[C@H](N2C(=O)c3ccc(NCC(=O)N4CCC(OCCN5CCN(c6ccc(Nc7ncnc8c7ncn8[C@H]7C[C@@H](NC(=O)Cc8ccccc8)C7)cc6)CC5)CC4)cc3C2=O)C(=O)N1 [Compound 248, N-((1s,3s)-3-(6-((4-(4-(2-((1-((2-(2,6-dioxopiperidin-3-yl)-1,3-dioxoisoindolin-5-yl)glycyl)piperidin-4-yl)oxy)ethyl)piperazin-1-yl)phenyl)amino)-9H-purin-9-yl)cyclobutyl)-2-phenylacetamide]
10/10/10% | 10/10/10% | 10/10/10% | 0/0/0% | 0/0/0% | 0/0/0% | Cc1cccc(C(=O)NC2CC(n3cnc4c(NCc5ccc(N6CCN(CC7CCN(C(=O)CNc8ccc9c(c8)C(=O)N([C@H]8CCC(=O)NC8=O)C9=O)CC7)CC6)cc5)ncnc43)C2)n1 (stereo partly drawn) [Compound 153, N-((1s,3s)-3-(6-((4-(4-((1-((2-(2,6-dioxopiperidin-3-yl)-1,3-dioxoisoindolin-5-yl)glycyl)piperidin-4-yl)methyl)piperazin-1-yl)benzyl)amino)-9H-purin-9-yl)cyclobutyl)-6-methylpicolinamide]
